Assay results reported in ChEMBL document CHEMBL1201862, “PubChem BioAssay data set” (2004).
Activity calls are given as the source filed them.

How the values were obtained:
[1] = biological target: 5-hydroxytryptamine receptor 2A (Mus musculus, UniProt P35363); assay type: functional, cell-based;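 also: CHO-K1 cells with tagged receptor and beta-arrestin; agonist potency measured as compound-induced activation of the receptor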
Mu-type opioid receptor = Mu-type opioid receptor (Homo sapiens, UniProt P35372); assay type: functional, cell-based;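 also: U2OS cells with beta-arrestin recruitment to OPRM1 by beta-gal complementation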
Chain of Mu-type opioid receptor (P35372 whole entry, the tested form may be a part): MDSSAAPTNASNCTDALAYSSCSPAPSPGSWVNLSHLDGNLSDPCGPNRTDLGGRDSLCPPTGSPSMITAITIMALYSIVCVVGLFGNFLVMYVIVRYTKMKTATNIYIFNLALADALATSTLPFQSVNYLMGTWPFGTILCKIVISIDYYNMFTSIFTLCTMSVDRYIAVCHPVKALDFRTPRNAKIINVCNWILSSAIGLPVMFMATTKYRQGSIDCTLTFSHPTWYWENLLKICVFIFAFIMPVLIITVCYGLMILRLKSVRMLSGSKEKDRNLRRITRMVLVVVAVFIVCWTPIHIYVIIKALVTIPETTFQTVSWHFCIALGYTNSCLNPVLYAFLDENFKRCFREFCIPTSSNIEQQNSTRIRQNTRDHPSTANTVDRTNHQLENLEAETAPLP

[2] = viability loss in CEM21 cells – cell-based, CellTiter-Glo luminescence, cherry-picked, cytotoxicity control for viral fusion inhibitor project, dose response (AID 652042); assay type: functional;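 also: potency for signal decrease meaning cytotoxicity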
[3] = blockers of HIV-1 envelope-mediated cell-cell fusion – cherry-pick, dose response (AID 652057); assay type: functional, cell-based
Protein skinhead-1 = biological target: T1, Protein skinhead-1 (Caenorhabditis elegans, UniProt P34707); assay type: functional
T1 sequence (P34707 whole entry): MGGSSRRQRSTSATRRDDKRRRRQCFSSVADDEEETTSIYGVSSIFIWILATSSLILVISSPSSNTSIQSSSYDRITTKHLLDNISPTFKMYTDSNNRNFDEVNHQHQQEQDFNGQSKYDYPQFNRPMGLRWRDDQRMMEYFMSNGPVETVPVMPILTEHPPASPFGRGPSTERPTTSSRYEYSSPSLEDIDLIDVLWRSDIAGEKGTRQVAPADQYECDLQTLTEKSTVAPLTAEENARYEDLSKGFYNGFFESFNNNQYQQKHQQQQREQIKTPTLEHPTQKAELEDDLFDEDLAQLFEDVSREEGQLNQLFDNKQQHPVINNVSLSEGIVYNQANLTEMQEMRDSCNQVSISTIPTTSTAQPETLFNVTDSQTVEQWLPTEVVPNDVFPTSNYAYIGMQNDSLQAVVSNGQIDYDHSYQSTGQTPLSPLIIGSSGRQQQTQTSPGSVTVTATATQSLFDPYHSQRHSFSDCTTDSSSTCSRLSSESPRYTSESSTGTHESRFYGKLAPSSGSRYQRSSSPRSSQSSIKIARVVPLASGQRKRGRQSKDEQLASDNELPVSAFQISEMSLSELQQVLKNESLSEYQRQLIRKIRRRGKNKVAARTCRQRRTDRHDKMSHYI

[4] = HIV-1 AD8 envelope cell-cell fusion blockers – cherry-pick, dose response (AID 652062); assay type: functional, cell-based;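 also: luciferase signal from cell-cell fusion driven by HIV-1 clade B AD8 Env; potency is for inhibitors of fusion seen as a drop in luminescence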
[5] = biological target: Luciferin 4-monooxygenase (Photinus pyralis, UniProt P08659); experiment: Counter Screen for Luciferase-based Assay Positives. [Related pubchem assays: 620, 618, 411 ]
Chain of Luciferin 4-monooxygenase (P08659 whole entry): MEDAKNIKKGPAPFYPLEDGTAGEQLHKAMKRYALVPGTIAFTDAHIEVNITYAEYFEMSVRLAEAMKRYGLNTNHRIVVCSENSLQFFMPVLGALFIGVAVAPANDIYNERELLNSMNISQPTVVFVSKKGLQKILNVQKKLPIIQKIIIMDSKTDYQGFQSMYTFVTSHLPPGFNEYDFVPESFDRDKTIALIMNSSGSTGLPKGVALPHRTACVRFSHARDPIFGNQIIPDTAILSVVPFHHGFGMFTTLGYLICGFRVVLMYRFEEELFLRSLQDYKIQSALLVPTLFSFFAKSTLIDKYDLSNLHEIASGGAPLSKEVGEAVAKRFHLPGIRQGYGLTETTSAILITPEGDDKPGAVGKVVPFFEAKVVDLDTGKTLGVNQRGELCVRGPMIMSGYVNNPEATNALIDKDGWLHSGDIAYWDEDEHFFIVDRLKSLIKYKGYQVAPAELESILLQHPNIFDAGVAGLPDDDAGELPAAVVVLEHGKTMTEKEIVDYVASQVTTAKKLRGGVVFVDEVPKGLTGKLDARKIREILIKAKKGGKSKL

cells = assay type: functional, cell-based
HT-1080 = experiment: HT1080 cell viability loss – fluorescence readout (AID 620); assay type: functional, cell-based; details: Homo sapiens
[6] = Luminescence Cell-Based Dose Response HTS to Identify Inhibitors of 5'UTR Stem-Loop Driven Prion Protein mRNA Translation in H4 Neuroglioblastoma Cells. [Related pubchem assays: 1827 (Project Summary), 1813 (Primary HTS)]; assay type: functional
[7] = biological target: T2, Nuclear receptor subfamily 0 group B member 1 (Homo sapiens, UniProt P51843); assay type: functional, cell-based;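 also: HEK293T cells transfected with SF-1 and DAX-1 plus StAR promoter luciferase reporter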
T2 sequence (P51843 whole entry): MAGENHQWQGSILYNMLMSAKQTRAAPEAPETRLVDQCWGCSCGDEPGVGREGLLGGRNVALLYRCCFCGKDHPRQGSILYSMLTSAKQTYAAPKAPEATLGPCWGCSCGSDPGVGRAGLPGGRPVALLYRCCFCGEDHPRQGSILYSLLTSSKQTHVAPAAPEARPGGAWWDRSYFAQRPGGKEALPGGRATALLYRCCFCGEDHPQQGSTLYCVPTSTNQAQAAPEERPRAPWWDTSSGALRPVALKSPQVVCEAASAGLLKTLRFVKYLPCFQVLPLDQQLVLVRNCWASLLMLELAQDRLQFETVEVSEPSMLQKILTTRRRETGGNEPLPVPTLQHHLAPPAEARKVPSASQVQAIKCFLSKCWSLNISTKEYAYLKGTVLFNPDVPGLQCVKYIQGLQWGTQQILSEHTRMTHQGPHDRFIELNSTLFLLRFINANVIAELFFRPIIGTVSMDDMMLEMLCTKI

[8] = biological target: T3, Small ubiquitin-related modifier 1 (Homo sapiens, UniProt P63165); experiment: SUMO1 protein-protein binding blockers, potency – biochemical, FRET, dose response (AID 624383); assay type: functional; details: read-out: IC50_Mean
T3 sequence (P63165 whole entry): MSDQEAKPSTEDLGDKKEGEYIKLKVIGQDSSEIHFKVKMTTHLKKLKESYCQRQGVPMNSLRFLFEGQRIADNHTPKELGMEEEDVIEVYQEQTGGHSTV

[9] = biological target: T4, Zinc finger protein mex-5 (Caenorhabditis elegans, UniProt Q9XUB2); experiment: potency of MEX-5 RNA-binding blockers – biochemical, C. elegans, fluorescence polarization, dose response (AID 1960)
T4 sequence (Q9XUB2 whole entry): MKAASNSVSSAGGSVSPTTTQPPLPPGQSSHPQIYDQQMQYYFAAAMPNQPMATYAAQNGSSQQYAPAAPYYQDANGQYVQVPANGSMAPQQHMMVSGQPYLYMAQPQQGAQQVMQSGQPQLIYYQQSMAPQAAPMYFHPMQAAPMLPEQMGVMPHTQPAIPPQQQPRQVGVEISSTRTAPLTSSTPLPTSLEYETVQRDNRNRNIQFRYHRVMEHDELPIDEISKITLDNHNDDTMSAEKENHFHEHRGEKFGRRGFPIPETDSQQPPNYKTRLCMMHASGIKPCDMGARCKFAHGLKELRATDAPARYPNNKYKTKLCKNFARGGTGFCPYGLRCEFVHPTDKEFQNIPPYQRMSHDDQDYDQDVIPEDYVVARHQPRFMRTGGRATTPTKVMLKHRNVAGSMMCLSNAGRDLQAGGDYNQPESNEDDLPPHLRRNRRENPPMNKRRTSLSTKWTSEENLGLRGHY

[10] = biological target: T5, RNA-binding protein pos-1 (Caenorhabditis elegans, UniProt G5EF15); experiment: disruptors of C. elegans POS-1 RNA interaction – biochemical, fluorescence polarization, dose response (AID 1964);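 also: purified POS-1 fused to maltose binding protein made in E. coli; potency of compounds blocking POS-1 binding to fluorescent RNA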
T5 sequence (G5EF15 whole entry): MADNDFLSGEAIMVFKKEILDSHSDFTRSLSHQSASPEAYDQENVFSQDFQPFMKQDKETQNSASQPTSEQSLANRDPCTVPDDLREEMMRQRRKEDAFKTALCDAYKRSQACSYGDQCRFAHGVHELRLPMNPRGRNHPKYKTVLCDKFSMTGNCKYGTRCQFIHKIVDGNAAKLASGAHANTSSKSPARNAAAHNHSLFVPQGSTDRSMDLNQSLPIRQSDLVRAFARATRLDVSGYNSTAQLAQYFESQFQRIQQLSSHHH

Large T antigen = Large T antigen (Simian virus 40, UniProt P03070); assay type: functional, Betapolyomavirus macacae;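 also: Confirmatory-stage PubChem screen for compounds that inhibit SV40 T antigen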
Chain of Large T antigen (P03070 whole entry): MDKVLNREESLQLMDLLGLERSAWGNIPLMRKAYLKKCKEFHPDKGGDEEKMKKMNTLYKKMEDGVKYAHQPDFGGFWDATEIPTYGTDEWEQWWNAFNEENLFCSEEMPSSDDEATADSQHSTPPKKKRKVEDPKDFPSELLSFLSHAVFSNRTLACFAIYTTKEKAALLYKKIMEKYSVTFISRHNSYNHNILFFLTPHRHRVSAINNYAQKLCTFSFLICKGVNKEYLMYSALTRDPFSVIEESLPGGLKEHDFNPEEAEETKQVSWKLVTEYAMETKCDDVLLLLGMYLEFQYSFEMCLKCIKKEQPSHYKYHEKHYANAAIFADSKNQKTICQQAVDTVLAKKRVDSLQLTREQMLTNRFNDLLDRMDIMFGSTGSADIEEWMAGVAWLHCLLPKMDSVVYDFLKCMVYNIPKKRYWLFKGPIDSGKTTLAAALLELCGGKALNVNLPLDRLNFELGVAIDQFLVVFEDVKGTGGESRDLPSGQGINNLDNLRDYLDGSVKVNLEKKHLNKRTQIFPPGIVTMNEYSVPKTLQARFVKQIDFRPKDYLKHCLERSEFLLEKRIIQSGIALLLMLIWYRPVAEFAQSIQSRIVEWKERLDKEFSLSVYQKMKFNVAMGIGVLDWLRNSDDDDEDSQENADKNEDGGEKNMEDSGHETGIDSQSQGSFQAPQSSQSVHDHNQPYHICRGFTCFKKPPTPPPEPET

[11] = biological target: T3, Small ubiquitin-related modifier 1; experiment: SUMO1 protein interaction blockers, potency – biochemical, fluorescence polarization, uHTS hits, dose response (AID 624382); assay type: functional; details: read-out: IC50_Mean
[12] = biological target: Induced myeloid leukemia cell differentiation protein Mcl-1 (Homo sapiens, UniProt Q07820); assay type: functional
Chain of Induced myeloid leukemia cell differentiation protein Mcl-1 (Q07820 whole entry): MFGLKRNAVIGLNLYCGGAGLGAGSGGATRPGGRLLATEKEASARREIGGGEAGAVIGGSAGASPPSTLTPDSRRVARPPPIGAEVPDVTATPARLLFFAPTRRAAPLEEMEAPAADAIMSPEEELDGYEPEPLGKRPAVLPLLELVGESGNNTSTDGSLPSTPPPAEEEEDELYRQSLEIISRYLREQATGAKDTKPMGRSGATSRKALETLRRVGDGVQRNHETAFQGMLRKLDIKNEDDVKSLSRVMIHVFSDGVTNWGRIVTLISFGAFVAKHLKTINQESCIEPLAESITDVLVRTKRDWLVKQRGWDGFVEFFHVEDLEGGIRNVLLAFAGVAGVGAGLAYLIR

[13] = biological target: DNA (cytosine-5)-methyltransferase 1 (Homo sapiens, UniProt P26358); experiment: inhibition of DNA methylation by DNMT1 – biochemical, fluorescent molecular beacon, confirmation (AID 602386); assay type: functional
Chain of DNA (cytosine-5)-methyltransferase 1 (P26358 whole entry): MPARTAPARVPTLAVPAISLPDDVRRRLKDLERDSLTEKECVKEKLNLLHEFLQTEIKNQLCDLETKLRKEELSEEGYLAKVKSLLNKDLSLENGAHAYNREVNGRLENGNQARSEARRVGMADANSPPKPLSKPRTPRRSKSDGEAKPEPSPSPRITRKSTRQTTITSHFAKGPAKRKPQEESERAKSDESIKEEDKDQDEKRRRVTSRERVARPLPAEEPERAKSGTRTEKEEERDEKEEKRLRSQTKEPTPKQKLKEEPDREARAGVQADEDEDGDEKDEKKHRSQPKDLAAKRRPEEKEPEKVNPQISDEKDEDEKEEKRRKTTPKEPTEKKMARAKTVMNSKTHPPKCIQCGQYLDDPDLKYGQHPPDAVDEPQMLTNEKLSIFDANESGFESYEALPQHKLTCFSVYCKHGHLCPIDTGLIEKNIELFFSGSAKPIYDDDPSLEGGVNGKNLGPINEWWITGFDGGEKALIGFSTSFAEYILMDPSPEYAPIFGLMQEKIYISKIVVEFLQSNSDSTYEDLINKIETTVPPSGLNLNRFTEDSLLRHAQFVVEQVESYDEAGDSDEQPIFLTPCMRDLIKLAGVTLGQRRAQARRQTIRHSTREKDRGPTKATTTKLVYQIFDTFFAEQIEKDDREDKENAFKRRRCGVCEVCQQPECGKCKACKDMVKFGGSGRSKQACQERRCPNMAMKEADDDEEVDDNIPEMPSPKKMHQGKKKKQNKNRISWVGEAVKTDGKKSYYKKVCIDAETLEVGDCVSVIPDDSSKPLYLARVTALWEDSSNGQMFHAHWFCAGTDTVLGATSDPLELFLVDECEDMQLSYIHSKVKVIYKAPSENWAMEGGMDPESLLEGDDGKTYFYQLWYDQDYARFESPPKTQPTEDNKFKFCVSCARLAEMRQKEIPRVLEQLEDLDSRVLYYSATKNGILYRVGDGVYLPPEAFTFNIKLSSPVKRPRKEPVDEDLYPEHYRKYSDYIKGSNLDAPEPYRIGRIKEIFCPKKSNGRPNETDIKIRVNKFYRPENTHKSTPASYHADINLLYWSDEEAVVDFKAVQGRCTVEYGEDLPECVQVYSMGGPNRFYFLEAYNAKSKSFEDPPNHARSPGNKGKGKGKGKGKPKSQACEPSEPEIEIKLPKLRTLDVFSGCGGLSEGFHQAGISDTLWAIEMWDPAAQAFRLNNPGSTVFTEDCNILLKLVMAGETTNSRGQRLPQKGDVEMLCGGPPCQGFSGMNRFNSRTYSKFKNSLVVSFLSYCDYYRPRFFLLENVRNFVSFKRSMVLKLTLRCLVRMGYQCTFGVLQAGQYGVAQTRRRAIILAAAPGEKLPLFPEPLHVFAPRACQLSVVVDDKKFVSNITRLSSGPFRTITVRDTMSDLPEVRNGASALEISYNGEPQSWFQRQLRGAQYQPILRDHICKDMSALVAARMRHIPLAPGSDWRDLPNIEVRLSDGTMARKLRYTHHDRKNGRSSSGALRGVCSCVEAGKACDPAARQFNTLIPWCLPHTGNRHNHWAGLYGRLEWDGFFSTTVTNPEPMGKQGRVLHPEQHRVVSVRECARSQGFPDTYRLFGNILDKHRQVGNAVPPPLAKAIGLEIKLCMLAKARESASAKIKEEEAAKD

[14] = biological target: T6, Histone-lysine N-methyltransferase NSD2 (Homo sapiens, UniProt O96028); assay type: biochemical
T6 sequence (O96028 whole entry): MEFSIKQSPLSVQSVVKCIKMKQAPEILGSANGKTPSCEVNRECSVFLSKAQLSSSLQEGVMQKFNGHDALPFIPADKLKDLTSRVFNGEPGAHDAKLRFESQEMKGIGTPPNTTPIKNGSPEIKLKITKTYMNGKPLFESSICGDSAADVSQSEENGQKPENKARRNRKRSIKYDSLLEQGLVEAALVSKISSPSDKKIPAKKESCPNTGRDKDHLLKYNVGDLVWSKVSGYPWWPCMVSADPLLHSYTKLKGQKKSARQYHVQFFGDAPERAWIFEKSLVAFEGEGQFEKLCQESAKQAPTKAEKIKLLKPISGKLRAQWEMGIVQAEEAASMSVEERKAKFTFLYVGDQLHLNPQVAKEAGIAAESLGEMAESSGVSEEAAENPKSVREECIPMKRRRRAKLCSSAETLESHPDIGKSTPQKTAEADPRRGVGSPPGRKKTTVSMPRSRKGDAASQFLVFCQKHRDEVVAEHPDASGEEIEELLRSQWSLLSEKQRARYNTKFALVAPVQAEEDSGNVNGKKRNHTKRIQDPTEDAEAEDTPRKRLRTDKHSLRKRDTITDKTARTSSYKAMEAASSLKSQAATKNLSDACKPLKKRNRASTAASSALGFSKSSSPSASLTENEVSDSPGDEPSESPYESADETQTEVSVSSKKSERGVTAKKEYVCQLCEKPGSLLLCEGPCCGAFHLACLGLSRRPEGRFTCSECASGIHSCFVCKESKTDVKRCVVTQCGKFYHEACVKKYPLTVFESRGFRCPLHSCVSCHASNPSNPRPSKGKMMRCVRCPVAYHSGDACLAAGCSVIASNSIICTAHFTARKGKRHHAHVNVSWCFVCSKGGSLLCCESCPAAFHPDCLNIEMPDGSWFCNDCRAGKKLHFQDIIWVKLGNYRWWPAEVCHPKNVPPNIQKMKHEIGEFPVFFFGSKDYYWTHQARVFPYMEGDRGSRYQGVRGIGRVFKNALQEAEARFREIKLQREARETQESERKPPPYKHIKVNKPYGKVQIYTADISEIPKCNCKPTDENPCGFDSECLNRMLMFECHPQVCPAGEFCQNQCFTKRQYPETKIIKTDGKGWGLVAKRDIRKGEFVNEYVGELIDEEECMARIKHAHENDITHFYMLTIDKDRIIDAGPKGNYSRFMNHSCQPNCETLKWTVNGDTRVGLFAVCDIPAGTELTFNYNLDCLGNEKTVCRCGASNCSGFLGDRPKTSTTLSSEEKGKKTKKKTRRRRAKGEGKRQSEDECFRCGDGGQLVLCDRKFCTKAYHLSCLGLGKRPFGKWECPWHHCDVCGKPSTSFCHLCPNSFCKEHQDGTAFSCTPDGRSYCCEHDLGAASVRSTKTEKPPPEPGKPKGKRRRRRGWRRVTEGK

[15] = biological target: T7, Long-chain-fatty-acid--AMP ligase FadD28 (Mycobacterium tuberculosis, UniProt P9WQ59); experiment: Fluorescence polarization aasay to screen for inhibitors that compete for the binding of FadD28 to a bisubstrate Measured in Biochemical System Using Plate Reader - 2147-01_Inhibitor_Dose_CherryPick_Activity.; assay type: functional, Mycobacterium tuberculosis H37Rv
T7 sequence (P9WQ59 whole entry): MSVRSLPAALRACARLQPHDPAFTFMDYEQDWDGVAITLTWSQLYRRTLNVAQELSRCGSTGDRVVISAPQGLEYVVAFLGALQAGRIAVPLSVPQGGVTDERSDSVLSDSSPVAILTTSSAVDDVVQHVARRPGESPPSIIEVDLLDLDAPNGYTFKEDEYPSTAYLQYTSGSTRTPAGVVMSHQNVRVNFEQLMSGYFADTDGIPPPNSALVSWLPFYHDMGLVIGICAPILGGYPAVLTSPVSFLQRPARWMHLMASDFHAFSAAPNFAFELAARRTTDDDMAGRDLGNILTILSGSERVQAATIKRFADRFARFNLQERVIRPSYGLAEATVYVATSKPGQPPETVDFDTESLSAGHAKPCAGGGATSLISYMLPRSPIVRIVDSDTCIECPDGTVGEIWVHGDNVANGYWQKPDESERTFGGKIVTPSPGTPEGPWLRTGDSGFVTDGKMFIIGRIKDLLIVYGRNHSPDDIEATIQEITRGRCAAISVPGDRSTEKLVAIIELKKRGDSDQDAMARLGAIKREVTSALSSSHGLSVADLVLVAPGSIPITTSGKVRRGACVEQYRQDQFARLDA

Chain of 5-hydroxytryptamine receptor 2A (P35363 whole entry): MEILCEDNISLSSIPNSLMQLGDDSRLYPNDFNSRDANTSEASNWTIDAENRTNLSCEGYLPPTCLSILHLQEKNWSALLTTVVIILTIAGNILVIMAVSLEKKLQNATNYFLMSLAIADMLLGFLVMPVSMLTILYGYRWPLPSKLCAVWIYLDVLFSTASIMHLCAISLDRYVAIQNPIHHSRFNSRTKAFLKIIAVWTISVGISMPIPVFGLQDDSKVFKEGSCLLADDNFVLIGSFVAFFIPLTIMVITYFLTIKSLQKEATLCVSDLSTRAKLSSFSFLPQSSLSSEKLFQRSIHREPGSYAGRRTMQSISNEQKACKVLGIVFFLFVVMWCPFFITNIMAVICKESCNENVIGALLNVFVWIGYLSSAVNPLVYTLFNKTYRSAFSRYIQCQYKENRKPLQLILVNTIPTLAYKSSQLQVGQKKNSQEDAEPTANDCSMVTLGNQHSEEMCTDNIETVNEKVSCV

| Structure (SMILES) | EC50 [1] | EC50 (Mu-type opioid receptor) | IC50 (cells) | IC50 [7] | also measured |
| --- | --- | --- | --- | --- | --- |
| CSCCC(=O)N1CC[C@@H](N2CCN(c3ccccc3F)CC2)[C@H](O)C1 | 41.7 µM (inactive) | 92.5 µM (inactive) | – | – | – |
| c1cnc(N2CCN(Cc3ccc4c(c3)OCO4)CC2)nc1 | 0.00986 µM (active) | 92.5 µM (inactive) | – | – | – |
| COc1cccc(CNc2nc(NCc3ccccc3OC)nc3ccsc23)c1 | – | – | – | – | AC50 [2]: 68.5 µM (active); AC50 [3]: 31.9 µM (active); IC50 (Protein skinhead-1): > 100 µM (inactive); AC50 [4]: 16.8 µM (active) |
| O=C(/C=C\Nc1ccccn1)c1ccccc1 | – | – | > 67.5 µM (inactive) | > 67.5 µM (inactive) | EC50 [5]: < 0.2 µM (active); EC50 (HT-1080): > 50 µM (not active); EC50 [6]: 10.7 µM (inconclusive); IC50 (Protein skinhead-1): 15.1 µM (active) |
| O=C(O)c1ccc(-n2cccc2/C=C2/NC(=O)N(c3ccccc3)C2=O)cc1 | – | – | – | – | IC50 [8]: 9.62 µM (active); EC50 [9]: 71.1 µM (active); EC50 [10]: > 300 µM (not active); IC50 (Large T antigen): > 100 µM (active); IC50 [11]: > 66.6 µM (inactive); IC50 [12]: 3.51 µM (active); IC50 [13]: 3.83 µM (active); AC50 [14]: 5.87 µM (active) |
| CCOC(=O)N1CCN(Cc2ccc(OCC(O)CN3CCCCC3)cc2)CC1 (stereo not given) | 2.22 µM (active) | 92.5 µM (inactive) | – | – | – |
| CC[C@@H](C)[C@H](C(CC(=O)N1CCCC1[C@@H](OC)[C@H](C)C(=O)N[C@H](Cc1ccccc1)c1nccs1)OC)N(C)C(=O)[C@H](NC(=O)[C@@H](C(C)C)N(C)C)C(C)C (stereo not given in full) | – | – | > 67.5 µM (inactive) | > 67.5 µM (inactive) | – |
| CCc1cccc2c(C(=O)CN3C(=O)NC4(CCc5ccccc54)C3=O)c[nH]c12 (stereo not given) | – | – | > 67.5 µM (inactive) | > 67.5 µM (inactive) | AC50 [15]: 29.2 µM (active) |
| CCC1CS/C(=N\c2ccc(C)cc2)N1C(=O)CN1C(=O)NC2(CCCC2)C1=O (stereo not given) | – | – | > 67.6 µM (inactive) | > 67.6 µM (inactive) | – |
| O=C(COC(=O)c1ccc(O)cc1O)c1ccc(Cl)cc1 | – | – | > 67.5 µM (inactive) | > 67.5 µM (inactive) | – |
| CC(=O)NCC1(c2ccccc2)CCN(CC2COc3ccccc3O2)CC1 (stereo not given) [ACOXATRINE] | 76.2 µM (inactive) | 92.6 µM (inactive) | – | – | – |
